Source: patent US20220323406A1, “METHODS AND COMPOSITIONS FOR DIFFERENTIATING STEM CELLS” (Massachusetts Institute of Technology, priority 2019, published 2022)

What was measured:
[1] = system: ENR+CD organoids; assay: Primary screen: ATP (CellTiter-Glo 3D, CTG) cell number/viability, 2.5-D 384-well ENR+CD organoids; settings: primary screen; for Z.CTG: standard z score;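 on all read-outs here: compounds given at plating and again on day 3 over a 6-day differentiation from ENR+CV stem-cell-enriched precursors, ATP measured on day 6, plate median as control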
[2] = system: ENR+CD organoids (ISC to Paneth cell differentiation); assay: Primary screen: basal (non-stimulated) lysozyme secretion LYZ.NS, 2.5-D 384-well ENR+CD organoid differentiation; format: cell-based, mouse; settings: primary screen; for Z.LYZ.NS: standard z score
Source text: (§1) High-throughput screening.

[3] = system: ENR+CD organoids (ISC to Paneth cell differentiation); assay: Primary screen: CCh-stimulated lysozyme secretion LYZ.S, 2.5-D 384-well ENR+CD organoid differentiation; format: cell-based, mouse; settings: primary screen
Source text: as §1

[4] = dose 0.08 uM, FC vs plate median
[5] = dose 0.40 uM, FC vs plate median
[6] = dose 2.00 uM, FC vs plate median
[7] = dose 10.00 uM, FC vs plate median
[8] = 1st dose row of the treatment (0.08 uM by row order; dose not reprinted)
[9] = 2nd dose row of the treatment (0.40 uM by row order; dose not reprinted)
[10] = 3rd dose row of the treatment (2.00 uM by row order; dose not reprinted)
[11] = 4th dose row of the treatment (10.00 uM by row order; dose not reprinted)

With `Nc1ncnc2c1c(-c1cccc(OCc3ccccc3)c1)cn2C1CC(CN2CCCC2)C1` (stereo not drawn) [NVP-ADW742] the Z.CTG ([1]; dose 0.08 uM) was 1.622, the Z.CTG ([1]; dose 0.40 uM) was 1.583 and the Z.CTG ([1]; dose 2.00 uM) was 0.614. For the same compound, the Z.CTG ([1]; dose 10.00 uM) was −1.112, the Dose.FC.CTG [1, 4] was 0.679 log2 fold change and the Dose.FC.CTG [1, 5] was 0.663 log2 fold change. It also gave a Dose.FC.CTG [1, 6] of 0.257 log2 fold change, a Dose.FC.CTG [1, 7] of −0.465 log2 fold change and a Z.LYZ.NS ([2]; dose 0.08 uM) of 1.239. It also gave a Z.LYZ.NS ([2]; dose 0.40 uM) of 1.499, a Z.LYZ.NS ([2]; dose 2.00 uM) of −0.823 and a Z.LYZ.NS ([2]; dose 10.00 uM) of −1.172. It also gave a Dose.FC.LYZ.NS [2, 4] of 0.142 log2 fold change, a Dose.FC.LYZ.NS [2, 5] of 0.172 log2 fold change and a Dose.FC.LYZ.NS [2, 6] of −0.095 log2 fold change. It also gave a Dose.FC.LYZ.NS [2, 7] of −0.135 log2 fold change, a Dose.FC.LYZ.S [3, 4] of 0.245 log2 fold change and a Dose.FC.LYZ.S [3, 5] of 0.265 log2 fold change. For the same compound, the Dose.FC.LYZ.S [3, 6] was −0.166 log2 fold change and the Dose.FC.LYZ.S [3, 7] was −0.210 log2 fold change.
For `COc1cc2c(cc1O)CC[C@@H]1[C@@H]2CC[C@]2(C)[C@@H](O)CC[C@@H]12` [2-Methoxyestradiol (2-MeOE2)], the “SSMD.CTG.Rep (strictly standardized mean difference)” value [1, 8] was 0.407, the “SSMD.CTG.Rep (strictly standardized mean difference)” value [1, 9] was 0.930 and the “SSMD.CTG.Rep (strictly standardized mean difference)” value [1, 10] was 0.461. For the same compound, the “SSMD.CTG.Rep (strictly standardized mean difference)” value [1, 11] was −0.878, the Dose.FC.CTG ([1]; dose 0.08 uM) was 0.299 log2 fold change and the “Z.CTG (standard z score)” value ([1]; dose 0.08 uM) was 0.714. For the same compound, the Dose.FC.CTG ([1]; dose 0.40 uM) was 0.401 log2 fold change, the “Z.CTG (standard z score)” value ([1]; dose 0.40 uM) was 0.957 and the Dose.FC.CTG ([1]; dose 2.00 uM) was 0.227 log2 fold change. The “Z.CTG (standard z score)” value ([1]; dose 2.00 uM) was 0.543, the Dose.FC.CTG ([1]; dose 10.00 uM) was −0.672 log2 fold change and the “Z.CTG (standard z score)” value ([1]; dose 10.00 uM) was −1.606. For the same compound, the “SSMD.LYZ.NS_Rep (strictly standardized mean difference)” value [2, 8] was 0.077, the “SSMD.LYZ.NS_Rep (strictly standardized mean difference)” value [2, 9] was 0.227 and the “SSMD.LYZ.NS_Rep (strictly standardized mean difference)” value [2, 10] was 0.049. For the same compound, the “SSMD.LYZ.NS_Rep (strictly standardized mean difference)” value [2, 11] was −0.826, the Dose.FC.LYZ.NS ([2]; dose 0.08 uM) was 0.021 log2 fold change and the “Z.LYZ.NS (standard z score)” value ([2]; dose 0.08 uM) was 0.186. For the same compound, the Dose.FC.LYZ.NS ([2]; dose 0.40 uM) was 0.065 log2 fold change, the “Z.LYZ.NS (standard z score)” value ([2]; dose 0.40 uM) was 0.566 and the Dose.FC.LYZ.NS ([2]; dose 2.00 uM) was 0.005 log2 fold change. For the same compound, the “Z.LYZ.NS (standard z score)” value ([2]; dose 2.00 uM) was 0.041, the Dose.FC.LYZ.NS ([2]; dose 10.00 uM) was −0.139 log2 fold change and the “Z.LYZ.NS (standard z score)” value ([2]; dose 10.00 uM) was −1.209. For the same compound, the “SSMD.LYZ.S_Rep (strictly standardized mean difference)” value [3, 8] was 1.015, the “Z.LYZ.S (standard z score)” value [3, 8] was 1.224 and the “SSMD.LYZ.S_Rep (strictly standardized mean difference)” value [3, 9] was 0.831. The “Z.LYZ.S (standard z score)” value [3, 9] was 1.747, the “SSMD.LYZ.S_Rep (strictly standardized mean difference)” value [3, 10] was 0.144 and the “Z.LYZ.S (standard z score)” value [3, 10] was 0.190. The “SSMD.LYZ.S_Rep (strictly standardized mean difference)” value [3, 11] was −1.135, the “Z.LYZ.S (standard z score)” value [3, 11] was −1.795 and the Dose.FC.LYZ.S ([3]; dose 0.08 uM) was 0.189 log2 fold change. It also gave a Dose.FC.LYZ.S ([3]; dose 0.40 uM) of 0.270 log2 fold change, a Dose.FC.LYZ.S ([3]; dose 2.00 uM) of 0.029 log2 fold change and a Dose.FC.LYZ.S ([3]; dose 10.00 uM) of −0.278 log2 fold change.
`Cc1ccc(C(=O)N(CCCN)[C@@H](c2nc3cc(Cl)ccc3c(=O)n2Cc2ccccc2)C(C)C)cc1` [Ispinesib (SB-715992)] was tested, and the “Dose.FC.CTG (log2 fold change)” value ([1]; dose 0.08 uM) was −0.323, the “Z.CTG (standard z score)” value ([1]; dose 0.08 uM) was −0.772 and the “Dose.FC.CTG (log2 fold change)” value ([1]; dose 0.40 uM) was −0.518. The “Z.CTG (standard z score)” value ([1]; dose 0.40 uM) was −1.238, the “Dose.FC.CTG (log2 fold change)” value ([1]; dose 2.00 uM) was −0.511 and the “Z.CTG (standard z score)” value ([1]; dose 2.00 uM) was −1.220. For the same compound, the “Dose.FC.CTG (log2 fold change)” value ([1]; dose 10.00 uM) was −0.713, the “Z.CTG (standard z score)” value ([1]; dose 10.00 uM) was −1.704 and the “Dose.FC.LYZ.NS (log2 fold change)” value ([2]; dose 0.08 uM) was −0.222. The “Z.LYZ.NS (standard z score)” value ([2]; dose 0.08 uM) was −1.931, the “Dose.FC.LYZ.NS (log2 fold change)” value ([2]; dose 0.40 uM) was −0.191 and the “Z.LYZ.NS (standard z score)” value ([2]; dose 0.40 uM) was −1.663. The “Dose.FC.LYZ.NS (log2 fold change)” value ([2]; dose 2.00 uM) was −0.196, the “Z.LYZ.NS (standard z score)” value ([2]; dose 2.00 uM) was −1.709 and the “Dose.FC.LYZ.NS (log2 fold change)” value ([2]; dose 10.00 uM) was −0.201. For the same compound, the “Z.LYZ.NS (standard z score)” value ([2]; dose 10.00 uM) was −1.752, the “Dose.FC.LYZ.S (log2 fold change)” value ([3]; dose 0.08 uM) was −0.271 and the “Dose.FC.LYZ.S (log2 fold change)” value ([3]; dose 0.40 uM) was −0.296. The “Dose.FC.LYZ.S (log2 fold change)” value ([3]; dose 2.00 uM) was −0.287 and the “Dose.FC.LYZ.S (log2 fold change)” value ([3]; dose 10.00 uM) was −0.286.
Work on `CCCCCCCCCCCCCCCCn1cc[n+](Cc2ccccc2)c1C.[I-]` [NH125] yielded a Z.CTG ([1]; dose 0.08 uM) of −0.829, a Z.CTG ([1]; dose 0.40 uM) of −1.213 and a Z.CTG ([1]; dose 2.00 uM) of −2.641. For the same compound, the Z.CTG ([1]; dose 10.00 uM) was −4.268, the Dose.FC.CTG [1, 4] was −0.347 log2 fold change and the Dose.FC.CTG [1, 5] was −0.508 log2 fold change. For the same compound, the Dose.FC.CTG [1, 6] was −1.106 log2 fold change, the Dose.FC.CTG [1, 7] was −1.787 log2 fold change and the Z.LYZ.NS ([2]; dose 0.08 uM) was −0.301. For the same compound, the Z.LYZ.NS ([2]; dose 0.40 uM) was −1.634, the Z.LYZ.NS ([2]; dose 2.00 uM) was −1.904 and the Z.LYZ.NS ([2]; dose 10.00 uM) was −2.293. For the same compound, the Dose.FC.LYZ.NS [2, 4] was −0.035 log2 fold change, the Dose.FC.LYZ.NS [2, 5] was −0.188 log2 fold change and the Dose.FC.LYZ.NS [2, 6] was −0.219 log2 fold change. For the same compound, the Dose.FC.LYZ.NS [2, 7] was −0.263 log2 fold change, the Dose.FC.LYZ.S [3, 4] was −0.114 log2 fold change and the Dose.FC.LYZ.S [3, 5] was −0.237 log2 fold change. The Dose.FC.LYZ.S [3, 6] was −0.358 log2 fold change and the Dose.FC.LYZ.S [3, 7] was −0.374 log2 fold change.
